Experimental data: patent US20100285959A1, “HERBICIDAL MIXTURES” (priority 2006, published 2010)

Tests used:
velvetleaf (ABUTH) [1] = assay: Test 18 greenhouse, post- and preemergence; settings: 15 DAA
winter wheat (TRZAW) = assay: Test 27 field trial, postemergence; format: in vivo, Triticum aestivum; settings: in vivo
Description: (§1) Wheat seeds (cv. ‘Custer’) were planted in late fall season in a clay loam soil. Plots were 9 m long by 1.8 m wide. The field was managed using conventional tillage practices. […] All treatments also included a surfactant. […] Results are the means of the three replicates.

kochia (KCHSC) = assay: Test 27 field trial, postemergence; format: in vivo, Kochia scoparia; design: scale not given here; settings: tribenuron-methyl 10 g a.i./ha
Description: as §1

velvetleaf (ABUTH) [2] = assay: Test 17 greenhouse, post- and preemergence; format: in vivo, Abutilon theophrasti; settings: 12 DAA
Description: Plants were watered as needed.

velvetleaf (ABUTH) [3] = assay: Test 16 greenhouse, post- and preemergence; settings: 15 DAA

## Cc1nn(-c2cc(NS(C)(=O)=O)c(Cl)cc2Cl)c(=O)n1C(F)F [Sulfentrazone]
Velvetleaf (ABUTH) [1]; alone at 7.5 g a.i./ha
  Postemergence ABUTH Obs: 10
  Preemergence ABUTH Obs: 0
Velvetleaf (ABUTH) [1]; alone at 15 g a.i./ha
  Postemergence ABUTH Obs: 19
  Preemergence ABUTH Obs: 3
Velvetleaf (ABUTH) [1]; alone at 30 g a.i./ha
  Postemergence ABUTH Obs: 44
  Preemergence ABUTH Obs: 28

## COC(=O)c1ccccc1S(=O)(=O)NC(=O)N(C)c1nc(C)nc(OC)n1 [Tribenuron-methyl]
Winter wheat (TRZAW); cv. Custer, Triticum aestivum (winter wheat), 16 days after application
  TRZAW Obs: 0
Winter wheat (TRZAW); cv. Custer, Triticum aestivum (winter wheat), 28 days after application
  TRZAW Obs: 0
Winter wheat (TRZAW)
  TRZAW Obs: 0
Kochia (KCHSC); 16 DAA
  KCHSC Obs: 22
Kochia (KCHSC); 28 DAA
  KCHSC Obs: 23
Kochia (KCHSC); 49 DAA
  KCHSC Obs: 22

## Cc1nn(-c2cc(CC(Cl)C(=O)O)c(Cl)cc2F)c(=O)n1C(F)F (stereo not drawn) [Carfentrazone]
Velvetleaf (ABUTH) [2]; Postemergence, 7.5 g a.i./ha
  Obs response, scale 0 to 100: 70
Velvetleaf (ABUTH) [2]; Postemergence, 15 g a.i./ha
  Obs response, scale 0 to 100: 79
Velvetleaf (ABUTH) [2]; Postemergence, 30 g a.i./ha
  Obs response, scale 0 to 100: 82
Velvetleaf (ABUTH) [2]; Preemergence, 7.5 g a.i./ha
  Obs response, scale 0 to 100: 4
Velvetleaf (ABUTH) [2]; Preemergence, 15 g a.i./ha
  Obs response, scale 0 to 100: 8
Velvetleaf (ABUTH) [2]; Preemergence, 30 g a.i./ha
  Obs response, scale 0 to 100: 8

## O=C(O)c1cc(Oc2ccc(C(F)(F)F)cc2Cl)ccc1[N+](=O)[O-] [Acifluorfen]
Velvetleaf (ABUTH) [3]; Postemergence, 7.5 g a.i./ha
  Obs response, scale 0 to 100: 0
Velvetleaf (ABUTH) [3]; Postemergence, 15 g a.i./ha
  Obs response, scale 0 to 100: 0
Velvetleaf (ABUTH) [3]; Postemergence, 30 g a.i./ha
  Obs response, scale 0 to 100: 0
Velvetleaf (ABUTH) [3]; Preemergence, 7.5 g a.i./ha
  Obs response, scale 0 to 100: 0
Velvetleaf (ABUTH) [3]; Preemergence, 15 g a.i./ha
  Obs response, scale 0 to 100: 2
Velvetleaf (ABUTH) [3]; Preemergence, 30 g a.i./ha
  Obs response, scale 0 to 100: 2
